Assay type in all cases: biochemical
The target in test [1] is T1, JAK1 (Homo sapiens, UniProt P23458).
T1 construct: 5 μl of catalytic domain recombinant Kinase enzyme+Tyr peptide substrate (Invitrogen, CA); purchased Invitrogen
In words: Z'-LYTE kinase assay JAK1. An outline of the steps: (§1)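 In duplicate wells, each test molecule (1% final DMSO) is incubated with recombinant kinase catalytic domain, Tyr6 peptide substrate and ATP for one hour at room temperature; a site-specific protease is then added for another hour before fluorescence reading.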

Test [2] concerns the target T2, JAK2 (Homo sapiens, UniProt O60674).
T2 construct: 5 μl of catalytic domain recombinant Kinase enzyme+Tyr peptide substrate (Invitrogen, CA); purchased Invitrogen
Put plainly: Z'-LYTE kinase assay JAK2. An outline of the steps:
as §1

For test [3], the target named is T3, JAK3 (Homo sapiens, UniProt P52333).
T3 construct: 5 μl of catalytic domain recombinant Kinase enzyme+Tyr peptide substrate (Invitrogen, CA); purchased Invitrogen
Put plainly: Z'-LYTE kinase assay JAK3. An outline of the steps: as §1

This passage reports IC50 results from patent US20150353495A1 (PORTOLA PHARMACEUTICALS, INC., priority 2010, published 2015).

T2 sequence (O60674 849-1124 limits assumed): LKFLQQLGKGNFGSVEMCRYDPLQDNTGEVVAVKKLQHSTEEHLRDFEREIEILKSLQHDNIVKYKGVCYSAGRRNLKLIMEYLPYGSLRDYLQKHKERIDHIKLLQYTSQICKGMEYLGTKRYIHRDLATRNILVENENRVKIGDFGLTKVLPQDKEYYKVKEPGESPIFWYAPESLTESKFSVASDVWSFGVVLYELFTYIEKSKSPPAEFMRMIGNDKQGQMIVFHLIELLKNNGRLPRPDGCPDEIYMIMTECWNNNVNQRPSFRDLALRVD
T3 sequence (P52333 822-1111 limits assumed): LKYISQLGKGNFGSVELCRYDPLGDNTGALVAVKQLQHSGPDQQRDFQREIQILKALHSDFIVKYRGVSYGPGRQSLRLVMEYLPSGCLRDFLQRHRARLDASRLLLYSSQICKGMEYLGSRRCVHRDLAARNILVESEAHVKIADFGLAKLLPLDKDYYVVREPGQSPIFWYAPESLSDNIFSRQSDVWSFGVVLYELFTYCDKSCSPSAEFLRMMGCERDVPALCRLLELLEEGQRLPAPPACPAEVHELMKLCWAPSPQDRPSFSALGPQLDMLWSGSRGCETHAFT
T1 sequence (P23458 875-1153 limits assumed): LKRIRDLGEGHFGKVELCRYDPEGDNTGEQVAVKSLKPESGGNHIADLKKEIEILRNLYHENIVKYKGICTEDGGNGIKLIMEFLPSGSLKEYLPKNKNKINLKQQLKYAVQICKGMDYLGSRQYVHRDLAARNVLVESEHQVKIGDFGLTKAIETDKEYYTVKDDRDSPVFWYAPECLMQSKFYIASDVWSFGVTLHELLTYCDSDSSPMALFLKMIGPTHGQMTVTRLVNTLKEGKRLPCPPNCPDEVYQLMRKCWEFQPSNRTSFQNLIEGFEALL

With `CN(C)C(=O)C1CN(c2ccc(Nc3cc(NCc4ccccc4)c(C(N)=O)cn3)cc2F)C1` [Example 342, 4-(benzylamino)-6-(4-(3-(dimethylcarbamoyl)azetidin-1-yl)-3-fluorophenylamino)nicotinamide], the values for the half-maximal inhibitory concentration (IC50) in test [1], in test [2] and in test [3] were 100 to 1000 nM, 100 to 1000 nM and 1 to 10 nM, respectively.
For the molecule `CN(C)C(=O)C1CCN(c2ccc(Nc3cc(NCc4ccccc4)c(C(N)=O)cn3)cc2)CC1` [Example 343, 4-(benzylamino)-6-(4-(4-(dimethylcarbamoyl)piperidin-1-yl)phenylamino)nicotinamide], the IC50 in test [1] fell in the range of 100 to 1000 nM; in test [2], 10 to 100 nM; in test [3] it was 1 to 10 nM.
In the same order, the values of `CN(C)C(=O)C1CCN(c2ccc(Nc3cc(NCc4cccc5sccc45)c(C(N)=O)cn3)cc2)CC1` [Example 344, 4-(benzo[b]thiophen-4-ylmethylamino)-6-(4-(4-(dimethylcarbamoyl)piperidin-1-yl)phenylamino)nicotinamide] are 100 to 1000 nM, 10 to 100 nM and 1 to 10 nM.
The corresponding values for `CN(C)C(=O)C1CCN(c2ccc(Nc3cc(NCc4cccc5[nH]ccc45)c(C(N)=O)cn3)cc2)CC1` [Example 345, 4-((1H-indol-4-yl)methylamino)-6-(4-(4-(dimethylcarbamoyl)piperidin-1-yl)phenylamino)nicotinamide] are 1 to 10 nM, 1 to 10 nM and < 1 nM.
`CS(=O)(=O)Cc1ccc(Nc2cc(NCc3cccc4ccsc34)c(C(N)=O)cn2)cc1` [Example 346, 4-(benzo[b]thiophen-7-ylmethylamino)-6-(4-(methylsulfonylmethyl)phenylamino)nicotinamide]: the figures for the half-inhibitory concentration (IC50) in test [1], in test [2] and in test [3] were 10 to 100 nM, 10 to 100 nM and < 1 nM, respectively.
For `CS(=O)(=O)Cc1ccc(Nc2cc(NCc3ccccc3)c(C(N)=O)cn2)cc1` [Example 347, 4-(benzylamino)-6-(4-(methylsulfonylmethyl)phenylamino)nicotinamide], the results for the IC50 in test [1], in test [2] and in test [3] were 100 to 1000 nM, 100 to 1000 nM and 1 to 10 nM, respectively.
Turning to `CS(=O)(=O)Cc1ccc(Nc2cc(NCc3cccc4[nH]ccc34)c(C(N)=O)cn2)cc1` [Example 348, 4-((1H-indol-4-yl)methylamino)-6-(4-(methylsulfonylmethyl)phenylamino)nicotinamide], the half-inhibitory concentration (IC50) in test [1] was 1 to 10 nM; in test [2] it was 1 to 10 nM; in test [3] it was < 1 nM.
As to `CN(C)C(=O)C1CN(c2ccc(Nc3cc(NCc4cccc5ccsc45)c(C(N)=O)cn3)cc2F)C1` [Example 349, 4-(benzo[b]thiophen-7-ylmethylamino)-6-(4-(3-(dimethylcarbamoyl)azetidin-1-yl)-3-fluorophenylamino)nicotinamide], the results for the half-inhibitory concentration (IC50) in test [1], in test [2] and in test [3] were 100 to 1000 nM, 10 to 100 nM and 1 to 10 nM, respectively.
The corresponding values for `CN(C)C(=O)C1CCN(c2ccc(Nc3cc(NCc4cccc5ccsc45)c(C(N)=O)cn3)cc2)CC1` [Example 350, 4-(benzo[b]thiophen-7-ylmethylamino)-6-(4-(4-(dimethylcarbamoyl)piperidin-1-yl)phenylamino)nicotinamide] are 10 to 100 nM, 10 to 100 nM and < 1 nM.
The corresponding values for `CN(C)C(=O)C1CCN(c2ccc(Nc3cc(NCc4cccc5ccsc45)c(C(N)=O)cn3)cc2Cl)CC1` [Example 351, 4-(benzo[b]thiophen-7-ylmethylamino)-6-(3-chloro-4-(4-(dimethylcarbamoyl)piperidin-1-yl)phenylamino)nicotinamide] are 100 to 1000 nM, 100 to 1000 nM and 1 to 10 nM.
In the same order, the values of `CC(=O)NCc1ccc(Nc2cc(NCc3cccc4ccsc34)c(C(N)=O)cn2)cc1` [Example 352, 6-(4-(acetamidomethyl)phenylamino)-4-(benzo[b]thiophen-7-ylmethylamino)nicotinamide] are 10 to 100 nM, 10 to 100 nM and 1 to 10 nM.
For the molecule `CS(=O)(=O)NCc1ccc(Nc2cc(NCc3cccc4ccsc34)c(C(N)=O)cn2)cc1` [Example 353, 4-(benzo[b]thiophen-7-ylmethylamino)-6-(4-(methylsulfonamidomethyl)phenylamino)nicotinamide], the IC50 in test [1] is 100 to 1000 nM; in test [2] it was 10 to 100 nM; in test [3] it was 1 to 10 nM.
As for `CN(C)C(=O)NCc1ccc(Nc2cc(NCc3cccc4ccsc34)c(C(N)=O)cn2)cc1` [Example 354, 4-(benzo[b]thiophen-7-ylmethylamino)-6-(4-((3,3-dimethylureido)methyl)phenylamino)nicotinamide], the IC50 in test [1] lay in the range of 100 to 1000 nM; in test [2], 10 to 100 nM; in test [3], 1 to 10 nM.
Take `CN(C)S(=O)(=O)NCc1ccc(Nc2cc(NCc3cccc4ccsc34)c(C(N)=O)cn2)cc1` [Example 355, 4-(benzo[b]thiophen-7-ylmethylamino)-6-(4-((N,N-dimethylsulfamoylamino)methyl)phenylamino)nicotinamide]: the IC50 was 100 to 1000 nM in test [1], 100 to 1000 nM in test [2] and 1 to 10 nM in test [3].
On to `CC(=O)N(C)c1ccc(Nc2cc(NC3(c4ccccc4)CC3)c(C(N)=O)cn2)cc1` [Example 361, 6-(4-(N-methylacetamido)phenylamino)-4-(1-phenylcyclopropylamino)nicotinamide], for which the IC50 is > 1000 nM in test [1], > 1000 nM in test [2] and 100 to 1000 nM in test [3].
On to `NC(=O)c1cnc(Nc2ccc(N3CCCCC3)cc2)cc1NC1(c2ccccc2)CC1` [Example 362], for which the IC50 in test [1] was > 1000 nM; in test [2] it was > 1000 nM; in test [3] it was 10 to 100 nM.
As for `CC(=O)N1CCN(c2cccc(Nc3cc(NC4(c5ccccc5)CC4)c(C(N)=O)cn3)c2)CC1` [Example 371, 6-(3-(4-acetylpiperazin-1-yl)phenylamino)-4-(1-phenylcyclopropylamino)nicotinamide], the half-inhibitory concentration (IC50) in test [1] was > 1000 nM; in test [2] it was 100 to 1000 nM; in test [3], 10 to 100 nM.
Turning to `CC(=O)N1CCN(c2cccc(N(C(C)=O)c3cc(NC4(c5ccccc5)CC4)c(C(N)=O)cn3)c2)CC1` [Example 372, 6-(N-(3-(4-acetylpiperazin-1-yl)phenyl)acetamino)-4-(1-phenylcyclopropylamino)nicotinamide], the IC50 in test [1], in test [2] and in test [3] was > 1000 nM each time.
With `CCC(=O)N1CCN(c2ccc(Nc3cc(NC4(c5cccc(F)c5F)CC4)c(C(N)=O)cn3)cc2)CC1` [Example 374, 4-(1-(2,3-difluorophenyl)cyclopropylamino)-6-(4-(4-propionylpiperazin-1-yl)phenylamino)nicotinamide], the half-maximal inhibitory concentration (IC50) is 100 to 1000 nM in test [1], 10 to 100 nM in test [2] and 1 to 10 nM in test [3].
The corresponding values for `CCC(=O)N1CCC(c2ccc(Nc3cc(NC4(c5ccccc5)CC4)c(C(N)=O)cn3)cc2)CC1` [Example 375, 4-(1-phenylcyclopropylamino)-6-(4-(1-propionylpiperidin-4-yl)phenylamino)nicotinamide] are > 1000 nM, > 1000 nM and 10 to 100 nM.
With `CC(=O)N1CCN(c2ccc(Nc3ncc(C(N)=O)c(NCc4cccc(F)c4)c3Cl)cc2)CC1` [Example 376], the half-inhibitory concentration (IC50) was > 1000 nM in test [1], > 1000 nM in test [2] and 100 to 1000 nM in test [3].
In the case of `N#CCOc1cccc(Nc2cc(NCc3ccccc3)c(C(N)=O)cn2)c1` [Example 383], the half-inhibitory concentration (IC50) in test [1] was 100 to 1000 nM; in test [2] it was 100 to 1000 nM; in test [3], 10 to 100 nM.
`N#CCc1cccc(Nc2cc(NCc3ccccc3)c(C(N)=O)cn2)c1` [Example 387]: the IC50 in test [1] was in the range of 100 to 1000 nM; in test [2], 100 to 1000 nM; in test [3] it was 1 to 10 nM.
In the case of `N#CCc1ccc(Nc2cc(NCc3ccccc3)c(C(N)=O)cn2)cc1` [Example 390], the IC50 in test [1] was in the range of 100 to 1000 nM; in test [2], 100 to 1000 nM; in test [3], 10 to 100 nM.
With `N#Cc1cccc(Nc2cc(NCc3ccccc3)c(C(N)=O)cn2)c1` [Example 391], the half-maximal inhibitory concentration (IC50) in test [1] is > 1000 nM; in test [2], > 1000 nM; in test [3] it was 10 to 100 nM.
Turning to `N#Cc1ccc(Nc2cc(NCc3ccccc3)c(C(N)=O)cn2)cc1` [Example 392], the concentration for half-maximal inhibition (IC50) was > 1000 nM in test [1], > 1000 nM in test [2] and 100 to 1000 nM in test [3].
In the case of `N#Cc1ccc(Nc2cc(NCc3ccccc3)c(C(N)=O)cn2)cc1C#N` [Example 393], the half-maximal inhibitory concentration (IC50) in test [1], in test [2] and in test [3] was > 1000 nM throughout.
As for `NC(=O)c1cnc(Nc2ccc(N3CCN(c4ccccn4)CC3)cc2)cc1NCc1cccc2[nH]ccc12` [Example 402], the IC50 in test [1] is 10 to 100 nM; in test [2], 10 to 100 nM; in test [3], 1 to 10 nM.
For `CS(=O)(=O)c1ccc(Nc2cc(NCc3cccc(-c4ccncc4)c3)c(C(N)=O)cn2)cc1` [Example 413, 6-(4-(methylsulfonyl)phenylamino)-4-(3-(pyridine-4-yl)benzylamino)nicotinamide], the figures for the IC50 in test [1], in test [2] and in test [3] were > 1000 nM, > 1000 nM and 10 to 100 nM, respectively.
As to `CN(C)C(=O)c1ccc(Nc2cc(NCc3cccc(-c4cccnc4)c3)c(C(N)=O)cn2)cc1` [Example 414, 6-(4-(dimethylcarbamoyl)phenylamino)-4-(3-(pyridine-3-yl)benzylamino)nicotinamide], the IC50 in test [1] lay in the range of 100 to 1000 nM; in test [2], 100 to 1000 nM; in test [3], 1 to 10 nM.
Take `CS(=O)(=O)c1ccc(Nc2cc(NCc3cccc(-c4cccnc4)c3)c(C(N)=O)cn2)cc1` [Example 415]: the IC50 was > 1000 nM in test [1], > 1000 nM in test [2] and 10 to 100 nM in test [3].
